Where two headings read alike, the source gives them in different places.

Consider six compounds from patent publication EP0700399B1, “36-DERIVATIVES OF RIFAMYCINS AND THEIR USE AS ANTIMICROBIAL AGENTS” (GRUPPO LEPETIT S.P.A., priority 1993, dated 1994).

One experiment relates to Strept. pneumoniae. The experiment can be described thus: MIC by broth microdilution. The class given is cell-based. Particulars: internal code L44; for MIC: Streptococcus pneumoniae, read-out: MIC of the compounds. For orientation: In broth dilution the organism is exposed to a series of concentrations in liquid medium.
The test system of another experiment is Streptococcus pyogenes. The experiment in a line: MIC by broth microdilution. Type of experiment: cell-based. Particulars: internal code L49; for MIC: Streptococcus pyogenes, read-out: MIC of the compounds.
Another experiment concerns Staphylococcus aureus. The experiment can be described thus: MIC by broth microdilution. The class given is cell-based. Particulars: internal code L165; for MIC: Staphylococcus aureus, read-out: MIC of the compounds.
In experiment [1] the test system is Staphylococcus aureus Smith (Int. code L 819). The experiment in a line: Experimental septicemia in mice. Type of experiment: in vivo. Particulars: Staphylococcus aureus, 168 h, treated once immediately after infection, survival on the 7th day. Here is the method: Some compounds of the invention were also tested in experimental septicemia in mice infected with Staphylococcus aureus Smith (Int. code L 819). For this purpose, groups of five mice were infected intraperitoneally with about 1 x 10^6 CFU of S. aureus Smith suspended in 0.5 ml of Difco bacteriological mucin. Untreated animals died within 48 hours. The other animals were treated once immediately after infection. On the 7th day the value of ED50 (expressed in mg/kg) was calculated by the method of Spearman-[…]., Statistical method in biological assay, page 254, C. Griffin Ltd., London, 1952), on the basis of the percentage of animals surviving at each dose.

Experiment [2] has as its system Propionibact. acnes ATCC 6919. The experiment can be described thus: MIC by broth microdilution. Type of experiment: cell-based, Propionibacterium acnes. The following applies: internal code L1014, anaerobic, 48 hours; for MIC: Cutibacterium acnes, ATCC6919, read-out: MIC of the compounds.
Another experiment has as its system Escherichia coli. The experiment can be described thus: MIC by broth microdilution. The class given is cell-based. Particulars: internal code L47; for MIC: Escherichia coli, read-out: MIC of the compounds.
In a further experiment the test system is Staph. aureus rifa-r^(2). The experiment can be described thus: MIC by broth microdilution. Type of experiment: cell-based. Particulars: for MIC: Staphylococcus aureus, read-out: MIC of the compounds; for MIC of the compounds: internal code L1282, rifampicin resistant strain, highly resistant.
The subject of experiment [3] is Staph. haemolyticus rifa-r^(2). The experiment in a line: MIC by broth microdilution. Type of experiment: cell-based. The following applies: for MIC: Staphylococcus haemolyticus, read-out: MIC of the compounds; for MIC of the compounds: internal code L602, rifampicin resistant strain, highly resistant.
For experiment [4], the system named is Proteus vulgaris ATCC 881. The experiment in a line: MIC by broth microdilution. The following applies: internal code L79; for MIC: Proteus vulgaris, ATCC881, read-out: MIC of the compounds. Type of experiment: cell-based.
The test system of experiment [5] is Bacteroides fragilis ATCC 23745. The experiment can be described thus: MIC by broth microdilution. The class given is cell-based. Particulars: internal code L1010, anaerobic, 48 hours.
The test system of another experiment is Staph. aureus rifa-r^(1). The experiment can be described thus: MIC by broth microdilution. The class given is cell-based. The following applies: for MIC: Staphylococcus aureus, read-out: MIC of the compounds; for MIC of the compounds: internal code L721, rifampicin resistant strain, moderately resistant.
In experiment [6] the test system is Staph. epidermidis ATCC 12228. The experiment can be described thus: MIC by broth microdilution. Type of experiment: cell-based. Particulars: internal code L147; for MIC: Staphylococcus epidermidis, ATCC12228, read-out: MIC of the compounds.
Experiment [7] deals with Haemoph. influenzae ATCC 19418. The experiment in a line: MIC by broth microdilution. The following applies: internal code L970, 5% carbon dioxide, 48 hours; for MIC: Haemophilus influenzae, ATCC19418, read-out: MIC of the compounds. Type of experiment: cell-based, Haemophilus influenzae.
Experiment [8] concerns Enterococc. faecalis ATCC 7080. The experiment can be described thus: MIC by broth microdilution. Type of experiment: cell-based, Enterococcus faecalis. The following applies: internal code L149; for MIC: Enterococcus faecalis, ATCC7080, read-out: MIC of the compounds.
The subject of another experiment is Neisseria gonorrhoeae. The experiment in a line: MIC by broth microdilution. Type of experiment: cell-based. The following applies: internal code L997, 5% carbon dioxide, 48 hours; for MIC: Neisseria gonorrhoeae, read-out: MIC of the compounds.
Experiment [9] relates to Pseudomonas aerug. ATCC10145. The experiment in a line: MIC by broth microdilution. Type of experiment: cell-based, Pseudomonas aeruginosa. The following applies: internal code L4; for MIC: Pseudomonas, ATCC10145, read-out: MIC of the compounds.
A further experiment has as its system Staph. aureus Smith. The experiment in a line: MIC by broth microdilution. The class given is cell-based. The following applies: internal code L819; for MIC: Staphylococcus aureus, read-out: MIC of the compounds.
The test system of experiment [10] is Bacteroides fragilis ATCC 25285. The experiment in a line: MIC by broth microdilution. The class given is cell-based. The following applies: internal code L1011, anaerobic, 48 hours; for MIC: Bacteroides fragilis, ATCC25285, read-out: MIC of the compounds.
Experiment [11] concerns Esch. coli K12 rifa-r^(1). The experiment can be described thus: MIC by broth microdilution. The class given is cell-based, Escherichia coli. Particulars: internal code G1064; rifampicin resistant strain, moderately resistant.
Experiment [12] deals with Esch. coli K12 hyperpermeable. The experiment can be described thus: MIC by broth microdilution. Particulars: internal code G1640; hyperpermeable. Type of experiment: cell-based, Escherichia coli.
Setting [13] is: sc, subcutaneous, read-out: ED50 SC route.

Broadly, the ED50 is the midpoint of the dose-response relation. As for `CCn1cc(C(=O)OCC(=O)O[C@H]2[C@H](C)[C@H](O)[C@H](C)[C@@H](O)[C@@H](C)/C=C/C=C(/C)C(=O)NC3=CC(=O)c4c(c(O)c(C)c5c4C(=O)[C@@](C)(O/C=C/[C@H](OC)[C@H]2C)O5)C3=O)c(=O)c2cc(F)c(N3CCN(C)CC3)cc21` [Compound C23, 36-{2-[1-Ethyl-6-fluoro-1,4-dihydro-7-(4-methyl-1-piperazinyl)-4-oxo-3-quinolinyl]carbonyloxy} rifamycin S], the MIC in the experiment with Strept. pneumoniae turned out to be 0.004 µg/mL; with Streptococcus pyogenes, 0.004 µg/mL; in the experiment with Staphylococcus aureus, 0.06 µg/mL; in experiment [2], 2 µg/mL; with Escherichia coli it was 128 µg/mL; in the experiment on Staph. aureus rifa-r^(2) it was 1 µg/mL. Besides, the MIC in [3] came to 4 µg/mL; in experiment [4], 128 µg/mL; in experiment [5] (Bacteroides fragilis, ATCC23745, read-out: MIC of the compounds), 8 µg/mL; in the experiment on Staph. aureus rifa-r^(1) it was 0.06 µg/mL; in experiment [6], 0.06 µg/mL; in [7] it was 2 µg/mL. The MIC in [8] was 0.13 µg/mL; with Neisseria gonorrhoeae, 8 µg/mL; in [9], > 128 µg/mL. Further, the ED50 in experiment [1] (setting [13]) amounted to 32.9 mg/kg.
In the case of “36-{[1-Ethyl-1,4-dihydro-1-methyl-4-oxo-1,8-naphthyridin-3-yl)carbonyloxy}-3-{[(4-methyl-1-piperazinyl)imino]methyl}rifamycin SV [Compound C27]”, the “MIC of the compounds” value in the experiment with Strept. pneumoniae worked out at 0.008 µg/mL; with Streptococcus pyogenes, 0.008 µg/mL; in the experiment on Staphylococcus aureus it was 0.03 µg/mL; in experiment [2], 0.03 µg/mL; with Escherichia coli, 32 µg/mL; in the experiment with Staph. aureus rifa-r^(2), 16 µg/mL. For the same compound, the “MIC of the compounds” value turned out to be 0.016 µg/mL in the experiment with Staph. aureus Smith; 16 µg/mL in experiment [3]; 16 µg/mL in [4]; 0.25 µg/mL in the experiment on Staph. aureus rifa-r^(1); 0.016 µg/mL in experiment [6]; 0.25 µg/mL in experiment [7]. Moreover, the “MIC of the compounds” value in [8] was determined as 2 µg/mL; in the experiment with Neisseria gonorrhoeae, 0.13 µg/mL; in experiment [9], 32 µg/mL; in [10], 0.13 µg/mL.
Take “36-Bromo-2'-(diethylamino)rifamycin P [Compound C9]”: the “MIC of the compounds” value in the experiment with Strept. pneumoniae is 0.13 µg/mL; in the experiment on Streptococcus pyogenes it was 0.13 µg/mL; in experiment [11], > 128 µg/mL; in the experiment on Staphylococcus aureus, 0.06 µg/mL; in [2], 0.06 µg/mL; in the experiment on Escherichia coli, 16 µg/mL. The “MIC of the compounds” value in experiment [12] is 2 µg/mL; with Staph. aureus rifa-r^(2), > 128 µg/mL; in experiment [3] it was ≥ 128 µg/mL; in experiment [4] it was 32 µg/mL; in experiment [5] it was 0.13 µg/mL; with Staph. aureus rifa-r^(1), 8 µg/mL. Also, the “MIC of the compounds” value is 0.06 µg/mL in [6]; 0.25 µg/mL in experiment [7]; 2 µg/mL in [8]; 0.5 µg/mL in the experiment with Neisseria gonorrhoeae; 16 µg/mL in experiment [9].
Take `CO[C@H]1/C=C/O[C@@]2(C)Oc3c(C)c(O)c4c(O)c(c(C=NN5CCN(C)CC5)c(O)c4c3C2=O)NC(=O)/C(C)=C\C=C\[C@H](C)[C@H](O)[C@@H](C)[C@@H](O)[C@@H](C)[C@H](OC(=O)COC(=O)c2cn(C3CC3)c3cc(-c4cc(C)nc(C)c4)c(F)cc3c2=O)[C@@H]1C` [Compound C29, 36-{[1-Cyclopropyl-6-fluoro-1,4-dihydre-7-(2,6-dimethyl-4-pyridinyl)-4-oxo-3-quinolinyl]-carbonyloxy}-3-{[(4-methyl-1-piperazinyl)imino]-methyl}rifamycin SV]: the MIC was 0.016 µg/mL in the experiment on Strept. pneumoniae; 0.016 µg/mL in the experiment with Streptococcus pyogenes; 0.03 µg/mL in the experiment on Staphylococcus aureus; 0.06 µg/mL in experiment [2]; 16 µg/mL in the experiment on Escherichia coli; 2 µg/mL with Staph. aureus rifa-r^(2). Moreover, the MIC with Staph. aureus Smith worked out at 0.03 µg/mL; in experiment [3], 8 µg/mL; in experiment [4] it was 128 µg/mL; in the experiment on Staph. aureus rifa-r^(1), 0.5 µg/mL; in experiment [6], 0.03 µg/mL; in experiment [7], 0.25 µg/mL. The MIC is 2 µg/mL in experiment [8], 0.25 µg/mL with Neisseria gonorrhoeae, > 128 µg/mL in [9] and 0.13 µg/mL in [10].
Turning to `CCn1cc(C(=O)OCC(=O)O[C@H]2[C@H](C)[C@H](O)[C@H](C)[C@@H](O)[C@@H](C)/C=C/C=C(/C)C(=O)Nc3c(C=NN4CCN(C)CC4)c(O)c4c5c(c(C)c(O)c4c3O)O[C@](C)(O/C=C/[C@H](OC)[C@H]2C)C5=O)c(=O)c2cc(F)c(N3CCN(C)CC3)cc21` [Compound C25, 36-{[1-Ethyl-6-fluoro-1,4-dihydro-7-(4-methyl-1-piperazinyl)-4-oxo-3-quinolinyl]carbonyloxy}-3-{[(4-methyl-1-piperazinyl)imino]methyl}rifamycin SV], the MIC in the experiment on Strept. pneumoniae is 0.016 µg/mL; in the experiment with Streptococcus pyogenes, 0.03 µg/mL; in the experiment with Staphylococcus aureus, 0.06 µg/mL; with Escherichia coli, 64 µg/mL; in the experiment on Staph. aureus rifa-r^(2) it was 1 µg/mL; with Staph. aureus Smith, 0.06 µg/mL. Also, the MIC in experiment [3] is 1 µg/mL; in [4], 64 µg/mL; in the experiment on Staph. aureus rifa-r^(1) it was 0.13 µg/mL; in experiment [6] it was 0.13 µg/mL; in experiment [7] it was 1 µg/mL; in experiment [8], 2 µg/mL. Further, the MIC in the experiment with Neisseria gonorrhoeae came out at 0.5 µg/mL; in [9] it was 128 µg/mL; in [10] it was 2 µg/mL. Besides, the ED50 stood at 2.9 mg/kg in [1] (intravenous, read-out: ED50 IV route) and 4.7 mg/kg in experiment [1] (setting [13]).
For `CCn1cc(C(=O)OCC(=O)O[C@H]2[C@H](C)[C@H](O)[C@H](C)[C@@H](O)[C@@H](C)/C=C/C=C(/C)C(=O)Nc3c(C=NN4CCN(C)CC4)c(O)c4c5c(c(C)c(O)c4c3O)O[C@](C)(O/C=C/[C@H](OC)[C@H]2C)C5=O)c(=O)c2cnc(N3CCN(C)CC3)nc21` [Compound C28], the MIC came to 0.008 µg/mL in the experiment on Strept. pneumoniae; 0.016 µg/mL with Streptococcus pyogenes; 0.06 µg/mL in the experiment on Staphylococcus aureus; 0.06 µg/mL in experiment [2]; 64 µg/mL in the experiment on Escherichia coli; 2 µg/mL in the experiment on Staph. aureus rifa-r^(2). Also, the MIC amounted to 0.06 µg/mL in the experiment on Staph. aureus Smith; 4 µg/mL in experiment [3]; 64 µg/mL in [4]; 0.13 µg/mL with Staph. aureus rifa-r^(1); 0.06 µg/mL in [6]; 2 µg/mL in experiment [7]. Moreover, the MIC is 8 µg/mL in experiment [8], 0.25 µg/mL in the experiment on Neisseria gonorrhoeae, 128 µg/mL in experiment [9] and 1 µg/mL in experiment [10].
